{"source": "patent US8933133B2", "about": "“Animal feeds containing polyols” (ADM Alliance Nutrition, Inc., priority 2006, dated 2015)", "key": {"[1]": {"system": "rumen fluid", "test": "In vitro fermentation of polyols in an artificial rumen environment using rumen fluid as inoculum", "details": "for fermentation rate: in vitro rumen fermentation, gas production monitored every 30 minutes; for fermentation rate / extent of fermentation: in words; for extent of fermentation: by 24 hours, judged from final gas volume and VFA", "experimental": "Fermentations were performed on two separate days where gas production was monitored every 30 minutes. In addition, pH, ammonia (NH3), and volatile fatty acid (“VFA”) production were measured after 24 hours. Duplicate samples of each compound were evaluated using in vitro rumen fermentations.\nDuplicate samples of these compounds were fermented in vitro using rumen fluid as inoculum. Samples were weighed into 150 mL serum bottles (0.3 grams per bottle) using a CO2 atmosphere to provide an anaerobic environment. A standard buffered media was prepared (no additional feed matter was included in the fermentation), degassed, and added to the serum bottles (see, Goering, H. K., and P. J. Van Soest, “Forage Fiber Analyses (Apparatus, Reagents, Procedures, and Some Applications),” Agric. Handbook, No 379, ARS-USDA, Washington, D.C., 1970). Rumen fluid was obtained from a dairy cow, filtered, and added to the serum bottles as 20% of the total fluid addition (30 mL total fluid volume). The serum bottles were sealed, placed in an incubator, and the fermentation was allowed to proceed. Fermentations were performed on two separate days, during which time gas production was monitored every 30 minutes and pH, NH3, and VFA production measured after 24 hours."}, "[2]": {"system": "circulating non-esterified fatty acids (NEFA)", "test": "Circulating non-esterified fatty acids in lambs fed a polyol supplement", "format": "in vivo", "details": "lambs fed restricted diet (75% of maintenance energy requirements), supplement 25 to 45 grams/lamb, blood 1-24 hours after dose", "description": "In this Example, the effect of a diet comprising an isolated or purified polyol on the level of circulating non-esterified fatty acids (“NEFA”) in lambs was examined.\nFour lambs were used in this Example. The lambs were fed a basal diet the first week followed by at least 4 weeks during which the supplement treatments were evaluated. The lambs were fed a diet supplement comprising sorbitan during the second and third weeks of the treatment. The lambs were fed a diet supplement comprising polyglycerol during the fourth and fifth weeks of the treatment. The diet supplements were fed separate from the basal diet feed."}}, "data": [{"smiles": "OC[C@@H](O)[C@H]1OC[C@H](O)[C@H]1O", "note": "[Sorbitan, 1,4-anhydro-D-sorbitol]", "values": [{"measurement": "rumen escape", "setting": "[1]; estimated from rate of in vitro fermentation / gas production, by weight escaping fermentation in the rumen", "result": "greater than 80%"}, {"measurement": "fermentation rate", "setting": "[1]", "result": "slower than glucose, sorbitol, or glycerol"}, {"measurement": "change in circulating NEFA levels", "setting": "[2]", "result": "decrease in circulating NEFA levels"}]}, {"smiles": "OC[C@@H](O)[C@@H](O)[C@H](O)[C@@H](O)CO", "note": "[Sorbitol, sorbitol]", "values": [{"measurement": "extent of fermentation", "setting": "[1]", "result": "largely fermented by 24 hours"}, {"measurement": "fermentation rate", "setting": "[1]", "result": "slower than glucose"}]}, {"smiles": "OCC(O)CO", "note": "[Glycerol, glycerol]", "values": [{"measurement": "extent of fermentation", "setting": "[1]", "result": "largely fermented by 24 hours"}]}]}
